Test results: patent publication US20230095520A1, “PHARMACEUTICAL COMPOSITION FOR PREVENTING OR TREATING CANCER COMPRISING AZOLE DERIVATIVES OR PHARMACEUTICALLY ACCEPTABLE SALT THEREOF” (Yungjin Pharm. Co., Ltd., priority 2020, published 2023)
Values belong to the molecule of their own block, whether it stands above or below them.

Tests used:
MDA-MB-468 cells = assay: MDA-MB-468 cell proliferation inhibition (MTT); assay type: cell-based; conditions: for Inhibition rate (%): MDA-MB-468, compound concentration 100 nM; for IC50: MDA-MB-468 proliferation
Description: MDA-MB-468 cells are one of the triple-negative breast cancer (TNBC: negative for the expression of estrogen receptor, progesterone receptor and HER2) cells known as a malignant tumor that is difficult to diagnose at an early stage and has a high metastatic capacity, and these cells are used to test inhibition of proliferation and survival of breast cancer cells.
MDA-MB-468 cells cultured in a 96-well cell culture plate were treated with the compound of the present invention and cultured for 72 hours. Thereafter, the antiproliferative effect of the compound was assayed by the MTT method using a tetrazolium salt.

MV-4-11 cells = assay: MV-4-11 cell proliferation inhibition (CCK-8); assay type: cell-based; conditions: 72 hours; for Inhibition rate (%): MV-4-11, compound concentration 100 nM; for IC50: MV4-11, MV-4-11 proliferation
Description: MV-4-11 cells are one of the acute myeloid leukemia cells with a Fms-like tyrosine kinase (FLT3) gene mutation, and these cells are used to test inhibition of proliferation and survival of leukemia cells.
MV-4-11 cells cultured in a 96-well cell culture plate were treated with the compound of the present invention and cultured for 72 hours. Thereafter, the antiproliferative effect of the compound was assayed by the CCK-8 method using a tetrazolium salt.

[1] = target: T1, Recombinant purified human CDK7 (Homo sapiens, UniProt P50613); assay: CDK7 activity inhibition, ADP-Glo kinase assay; assay type: biochemical; conditions: ATP 90 μM, MBP substrate, 2 hours 30° C.
T1 construct: purchased ThermoFisher PV3868
T1 sequence (P50613 whole entry): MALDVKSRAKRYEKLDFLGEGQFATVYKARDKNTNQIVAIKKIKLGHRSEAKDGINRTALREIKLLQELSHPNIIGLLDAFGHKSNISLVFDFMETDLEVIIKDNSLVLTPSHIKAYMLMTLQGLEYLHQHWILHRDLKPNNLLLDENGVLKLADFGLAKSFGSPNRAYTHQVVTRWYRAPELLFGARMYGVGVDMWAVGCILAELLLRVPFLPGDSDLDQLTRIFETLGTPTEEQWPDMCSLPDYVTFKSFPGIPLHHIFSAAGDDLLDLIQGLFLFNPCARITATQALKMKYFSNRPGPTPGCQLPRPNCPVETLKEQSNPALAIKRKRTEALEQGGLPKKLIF
T1 sequence (P51946 whole entry partner): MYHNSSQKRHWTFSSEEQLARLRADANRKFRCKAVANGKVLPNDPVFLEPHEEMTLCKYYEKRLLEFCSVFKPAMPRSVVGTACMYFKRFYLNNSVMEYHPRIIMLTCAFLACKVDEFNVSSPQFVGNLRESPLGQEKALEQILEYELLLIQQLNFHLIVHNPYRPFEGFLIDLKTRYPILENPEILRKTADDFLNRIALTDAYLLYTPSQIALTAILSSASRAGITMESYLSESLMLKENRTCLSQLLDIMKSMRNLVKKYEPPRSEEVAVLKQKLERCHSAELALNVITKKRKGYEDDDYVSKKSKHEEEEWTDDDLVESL
T1 sequence (P51948 whole entry partner): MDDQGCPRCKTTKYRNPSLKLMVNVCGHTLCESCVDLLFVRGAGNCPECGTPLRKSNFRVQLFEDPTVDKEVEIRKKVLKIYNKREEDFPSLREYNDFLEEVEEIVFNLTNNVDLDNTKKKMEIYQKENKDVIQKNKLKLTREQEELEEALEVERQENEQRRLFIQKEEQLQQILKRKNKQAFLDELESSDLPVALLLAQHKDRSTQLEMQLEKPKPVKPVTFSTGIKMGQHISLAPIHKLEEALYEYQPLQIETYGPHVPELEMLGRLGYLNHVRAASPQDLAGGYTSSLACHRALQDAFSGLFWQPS
Method in brief: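 Human recombinant CDK7 (50 ng per reaction) in 40 mM Tris-Cl pH 7.5, 20 mM MgCl2, 0.1 mg/ml BSA, 50 μM DTT, with 1% DMSO. The reaction used 90 μM ATP and 0.2 μg/μl MBP substrate for 2 h at 30 °C. ADP formed was quantified by ADP-Glo luminescence to derive inhibition.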

HepG2 cells = assay: HepG2 cell proliferation inhibition (CCK-8); assay type: cell-based; conditions: Homo sapiens, HepG2, 72 h
Description: HepG2 cells are human hepatocellular carcinoma cells. In order to evaluate the efficacy of inhibiting the proliferation in HepG2 cells, HepG2 cells were treated with the compounds of the present invention, and the proliferation level was measured as follows.
The cells were cultured with a culture medium of MEM (Welgene)+10% FBS (Gibco)+1% penicillin/streptomycin (Gibco) at 37° C. in a humidified condition in the presence of 5% CO2. HepG2 cells cultured in a 96-well cell culture plate were treated with the compound of the present invention and cultured for 72 hours.

Hep3B = assay: Cancer cell proliferation GI50 (CCK-8); assay type: cell-based; conditions: liver cancer, 72 hours
Description: (§1) The proliferation effect of SY-1365, which is known to have a proliferation inhibitory effect on various carcinoma cells, and the compound of the present invention on various cancer cells was measured and compared as GI50 (half maximal growth inhibitory concentration, the concentration at which cell proliferation is reduced by half).
(§2) Various carcinoma cells were cultured at 37° C. in a humidified condition in the presence of 5% CO2. Each cell cultured in a 96-well cell culture plate was treated with the compound of the present invention and cultured for 72 hours.
(§3) In this example, in order to confirm the proliferation inhibitory effect on various cancer cells, Compound 121 was tested as follows.
(§4) The cells were cultured with a culture medium shown in Table 9 below at 37° C. in a humidified condition in the presence of 5% CO2. Each cell cultured in a 96-well cell culture plate was treated with the compound of the present invention and cultured for 72 hours.

Huh7 = assay: Cancer cell proliferation GI50 (CCK-8); assay type: cell-based; conditions: Huh7 (Huh-7), liver cancer, 72 hours
Description: as §1, §2, §3, §4

MDA-MB-231 = assay: Cancer cell proliferation GI50 (CCK-8); assay type: cell-based; conditions: MDA-MB-231, breast cancer, 72 hours
Description: as §1, §2, §3, §4

MDA-MB-468 = assay: Cancer cell proliferation GI50 (CCK-8); assay type: cell-based; conditions: MDA-MB-468, breast cancer, 72 hours
Description: as §1, §2, §3, §4

HepG2 = assay: Cancer cell proliferation GI50 (CCK-8); assay type: cell-based, human; conditions: HepG2, liver cancer, 72 hours
Description: as §1, §2, §3, §4

Compound: C=CC(=O)Nc1cncc(-c2cccc([C@H](C)C(=O)Nc3ncc(C4CC4)s3)c2)n1 [Compound 16]
- Inhibition rate (%) (MDA-MB-468 cells; 72 hours): 53%
- Inhibition rate (%) (MV-4-11 cells): 90%

Compound: C=CC(=O)Nc1cnc(-c2cccc([C@H](C)C(=O)Nc3ncc(C4CC4)s3)c2)cn1 [Compound 22]
- Inhibition rate (%) (MDA-MB-468 cells; 72 hours): 72%
- Inhibition rate (%) (MV-4-11 cells): 100%

Compound: C=CC(=O)Nc1ncc(-c2cccc([C@H](C)C(=O)Nc3ncc(C4CC4)s3)c2)cn1 [Compound 27]
- Inhibition rate (%) (MDA-MB-468 cells; 72 hours): 74%
- Inhibition rate (%) (MV-4-11 cells): 100%

Compound: C=CC(=O)Nc1ccc(-c2cccc([C@H](C)C(=O)Nc3ncc(C4CC4)s3)c2)nn1 [Compound 28]
- Inhibition rate (%) (MDA-MB-468 cells; 72 hours): 74%
- Inhibition rate (%) (MV-4-11 cells): 100%

Compound: C=CC(=O)Nc1ncc(-c2cccc([C@H](C)C(=O)Nc3ncc(C4CC4)s3)c2)cc1F [Compound 29]
- Inhibition rate (%) (MDA-MB-468 cells; 72 hours): 75%
- Inhibition rate (%) (MV-4-11 cells): 100%

Compound: C=CC(=O)Nc1cnc(-c2cncc(C(C)C(=O)Nc3ncc(C(F)(F)F)s3)c2)cn1 (stereo not drawn) [Compound 45, N-(5-(5-(1-oxo-1-((5-(trifluoromethyl)thiazol-2-yl)amino)propan-2-yl)pyridin-3-yl)pyrazin-2-yl)acrylamide]
- IC50 [1]: 22.7 nM
- IC50 (MDA-MB-468 cells; Homo sapiens, MDA-MB-468, 72 h): ≤ 14 nM
- IC50 (MDA-MB-468 cells; 72 hours): 9.5 nM
- inhibition at 0.1 µM (MV-4-11 cells; Homo sapiens, MV4-11, MV-4-11, compound concentration 100 nM, read-out: Inhibition rate (%)): 100%
- IC50 (MV-4-11 cells; Homo sapiens): 8 nM
- IC50 (HepG2 cells): 8.3 nM

Compound: C=CC(=O)Nc1ccc(-c2cncc(C(C)C(=O)Nc3ncc(C(F)(F)F)s3)c2)cn1 (stereo not drawn) [Compound 82, N-(5′-(1-oxo-1-((5-(trifluoromethyl)thiazol-2-yl)amino)propan-2-yl)-[3,3′-bipyridin]-6-yl)acrylamide]
- IC50 [1]: 36 nM
- IC50 (MV-4-11 cells; Homo sapiens): 9.1 nM

Compound: CC(C(=O)Nc1ncc(C(F)(F)F)s1)c1cncc(-c2cnc(NC(=O)/C=C/CN3CC4CC3CO4)cn2)c1 (stereo not drawn) [Compound 83, (E)-4-(2-oxa-5-azabicyclo[2.2.1]heptan-5-yl)-N-(5-(5-(1-oxo-1-((5-(trifluoromethyl)thiazol-2-yl)amino)propan-2-yl)pyridin-3-yl)pyrazin-2-yl)but-2-enamide]
- IC50 [1]: 23 nM
- IC50 (MV-4-11 cells; Homo sapiens): 6.9 nM

Compound: C[C@H](C(=O)Nc1ncc(C(F)(F)F)s1)c1cccc(-c2cnc(NC(=O)/C=C/CN3CC4CC3CO4)cn2)c1 (stereo partly drawn) [Compound 96, (E)-4-(2-oxa-5-azabicyclo[2.2.1]heptan-5-yl)-N-(5-(3-((S)-1-oxo-1-((5-(trifluoromethyl)thiazol-2-yl)amino)propan-2-yl)phenyl)pyrazin-2-yl)but-2-enamide]
- IC50 [1]: 7.6 nM
- IC50 (MV-4-11 cells; Homo sapiens): 43.9 nM

Compound: C[C@H](C(=O)Nc1ncc(C(F)(F)F)s1)c1cccc(-c2cnc(NC(=O)/C=C/CN(C)C)c(F)c2)c1 [Compound 99, (S,E)-4-(dimethylamino)-N-(3-fluoro-5-(3-(1-oxo-1-((5-(trifluoromethyl)thiazol-2-yl)amino)propan-2-yl)phenyl)pyridin-2-yl)but-2-enamide]
- IC50 [1]: 7.6 nM
- IC50 (MV-4-11 cells; Homo sapiens): 12.7 nM

Compound: C[C@H](C(=O)Nc1ncc(C(F)(F)F)s1)c1cccc(-c2cnc(NC(=O)/C=C/CN(C)C)c(C#N)c2)c1 [Compound 101, (S,E)-N-(3-cyano-5-(3-(1-oxo-1-((5-(trifluoromethyl)thiazol-2-yl)amino)propan-2-yl)phenyl)pyridin-2-yl)-4-(dimethylamino)but-2-enamide]
- IC50 [1]: 4.3 nM
- IC50 (MV-4-11 cells; Homo sapiens): 12.3 nM

Now from value to molecule:

- IC50 [1]: 9 nM
- IC50 (MV-4-11 cells; Homo sapiens): 30.7 nM
Compound: C[C@H](C(=O)Nc1ncc(C2CCC2)s1)c1cccc(-c2cnc(NC(=O)/C=C/CN(C)C)cn2)c1 [Compound 104, (S,E)-N-(5-(3-(1-((5-cyclobutylthiazol-2-yl)amino)-1-oxopropan-2-yl)phenyl)pyrazin-2-yl)-4-(dimethylamino)but-2-enamide]

- IC50 [1]: 10.5 nM
- IC50 (MV-4-11 cells; Homo sapiens): 7.1 nM
Compound: CC(C(=O)Nc1ncc(C(F)(F)F)s1)c1cncc(-c2cnc(NC(=O)/C=C/CN(C)C)c(C#N)c2)c1 (stereo not drawn) [Compound 108, (E)-N-(5-cyano-5′-(1-oxo-1-((5-(trifluoromethyl)thiazol-2-yl)amino)propan-2-yl)-[3,3′-bipyridin]-6-yl)-4-(dimethylamino)but-2-enamide]

- IC50 [1]: 17 nM
- IC50 (HepG2 cells): 12.6 nM
Compound: C[C@H](C(=O)Nc1ncc(C(F)(F)F)s1)c1cccc(-c2cnc(NC(=O)/C=C/CN3CC[C@@H](F)C3)cn2)c1 [Compound 115, (E)-4-((R)-3-fluoropyrrolidin-1-yl)-N-(5-(3-((S)-1-oxo-1-((5-(trifluoromethyl)thiazol-2-yl)amino)propan-2-yl)phenyl)pyrazin-2-yl)but-2-enamide]

- IC50 [1]: 9 nM
- IC50 (MDA-MB-468 cells; 72 hours): 44 nM
Compound: C[C@H](C(=O)Nc1ncc(C(F)(F)F)s1)c1cccc(-c2cnc(NC(=O)/C=C/CN3CCC(O)C3)cn2)c1 (stereo partly drawn) [Compound 119, (E)-4-(3-hydroxypyrrolidin-1-yl)-N-(5-(3-((S)-1-oxo-1-((5-(trifluoromethyl)thiazolyl)amino)propan-2-yl)phenyl)pyrazin-2-yl)but-2-enamide]

- IC50 [1]: 4 nM
- IC50 (MDA-MB-468 cells; Homo sapiens, MDA-MB-468, 72 h): ≤ 14 nM
- IC50 (MDA-MB-468 cells; 72 hours): 7 nM
Compound: CCc1cnc(NC(=O)[C@@H](C)c2cccc(-c3cnc(NC(=O)/C=C/CN(C)C)c(F)c3)c2)s1 [Compound 130, (S,E)-4-(dimethylamino)-N-(5-(3-(1-((5-ethylthiazol-2-yl)amino)-1-oxopropan-2-yl)phenyl)-3-fluoropyridin-2-yl)but-2-enamide]

- GI50 (Hep3B): 36 nM
- GI50 (Huh7): 20 nM
- GI50 (MDA-MB-231): 70 nM
- GI50 (MDA-MB-468): 18 nM
- GI50 (HepG2): 19 nM
Compound: CN(C)C/C=C/C(=O)Nc1ccc(C(=O)N[C@@]2(C)CCC[C@@H](Nc3ncc(Cl)c(-c4c[nH]c5ccccc45)n3)C2)nc1 [SY-1365, reference compound]
